Assay results taken from US20130116336A1, “TREATMENT OF ATAXIA TELANGIECTASIA” (priority 2010, published 2013).

Assays:
[1] = Animal study of alpha-tocotrienol quinone administration: pharmacokinetics in fasted dogs; details: dog, in vivo, po, 10 mg/kg
Protocol: (§1) The particular dosage appropriate for a specific patient is determined by dose titration. […] There is less than dose-proportionality since for an increase in doses of 2.4:6:10:20 there is only an increase in AUCs of 1.5:2.8:4.0:6.7. This lack of dose-proportionality may be due to decreased absorption since there is no change in t1/2 over dose range. Alpha-tocotrienol quinone tested in rats was safe when given acutely up to 2000 mg/kg.

[2] = Animal study of alpha-tocotrienol quinone administration: pharmacokinetics in rats; details: rat, in vivo, 10 mg/kg
Protocol: as §1

in vivo = details: rat; for NOAEL: female
Protocol: as §1
The starting dose can be estimated based on the United States Food and Drug Administration guidelines titled “Estimating the Maximum Safe Starting Dose in Initial Clinical Trials for Therapeutics in Adult Healthy Volunteers” (July 2005) as well as the International Conference on Harmonisation of Technical Requirements for Registration of Pharmaceuticals for Human Use (ICH) guidelines titled “Guidance on Non-clinical Safety Studies for the Conduct of Human Clinical Trials and Marketing Authorization for Pharmaceuticals” (July 2008). Per ICH guidelines, predicted exposures from the starting dose should not exceed 1/50th the NOAEL (No-Adverse-Observed-Effect-Level) in the more sensitive species on a mg/m^2 basis. Following a single oral dose of alpha-tocotrienol quinone, the NOAEL was established to be 500 mg/kg for the female rat, i.e. 3,000 mg/m2. This dosage would be equivalent to 81 mg/kg in an adult human. 1/50th of 81 mg/kg is 1.6 mg/kg, i.e. 110 mg for a 70 kg adult, or 16 mg for a 10 kg child. This dose can be administered once, twice, or three times daily.

[3] = system: Ataxia-Telangiectasia fibroblast cells AG04405 (AT05); experiment: Ataxia-Telangiectasia cell line assay: rescue of BSO-stressed A-T fibroblasts, Calcein AM viability; format: cell-based; details: A-T fibroblasts AT05 stressed with 1 mM BSO for 48 h, Calcein AM fluorescence, tested three times, read-out: ED50, protection of ataxia telangiectasia cells
Protocol: Alpha-Tocotrienol quinone, was tested for its ability to rescue Ataxia-Telangiectasia fibroblast cells obtained from the Coriell Cell Repositories (Camden, N.J.; repository number AG04405 (AT05), when the cells were stressed by addition of L-buthionine-(S,R)-sulfoximine (BSO), as described in Jauslin et al., Hum. Mol. Genet. 11(24):3055 (2002), Jauslin et al., FASEB J. 17:1972-4 (2003), and International Patent Application WO 2004/003565.
MEM (a medium enriched in amino acids and vitamins, catalog no. 1-31F24-I) and Medium 199 (M199, catalog no. 1-21F22-I) with Earle's Balanced Salts, without phenol red, were purchased from Bioconcept. Fetal Calf Serum was obtained from PAA Laboratories. Basic fibroblast growth factor and epidermal growth factor were purchased from PeproTech. Penicillin-streptomycin-glutamine mix, L-buthionine (S,R)-sulfoximine, and insulin from bovine pancreas were purchased from Sigma. Calcein AM was purchased from Molecular Probes. […]
100 μL of PBS containing 1.2 μM Calcein AM were then added to each well. […] After that time the PBS was discarded, the plate gently tapped on a paper towel and fluorescence (excitation/emission wavelengths of 485 nm and 525 nm, respectively) was read on a Gemini fluorescence reader. […]

Q: For CC(C)=CCC/C(C)=C/CC/C(C)=C/CCC(C)(O)CCC1=C(C)C(=O)C(C)=C(C)C1=O (stereo not drawn) [Alpha-tocotrienol quinone], which Cmax [1] is on record?
A: 442 ng/mL

Q: What about the Tmax [1] of the same compound?
A: 2.8 h

Q: What about the bioavailability [1] of the same compound?
A: ~16%

Q: What about the half-life [1] of the same compound?
A: 7.6 h

Q: What about the Cmax [2] of the same compound?
A: 931 ng/mL

Q: What about the Tmax [2] of the same compound?
A: 3.5 h

Q: What about the bioavailability [2] of the same compound?
A: ~90%

Q: And the half-life [2]?
A: 3.5 h

Q: What about the NOAEL (in vivo) of the same compound?
A: 81 mg/kg

Q: And the NOAEL (in vivo; po)?
A: 500 mg/kg

Q: And the “dose at which safe when given acutely” value (in vivo)?
A: up to 2000 mg/kg

Q: What about the “NOAEL on body surface basis” value (in vivo; po) of the same compound?
A: 3,000 mg/m2

Q: And the EC50 [3]?
A: 28 nM
